Measurements taken from patent US11053213B2, “Pharmaceutical compounds” (ALMAC DISCOVERY LIMITED, priority 2016, dated 2021).

What follows are molecules tested against USP19 (Homo sapiens (Human), UniProt O94966) (assay: USP19 activity assay (fluorescence polarisation, Ubiquitin-Lys-TAMRA substrate)). Conditions: full-length USP19 2.5 nM, 30 min pre-incubation, Ub substrate 500 nM; average of at least two duplicate experiments.
Type: biochemical

Chain of USP19 (O94966 whole entry): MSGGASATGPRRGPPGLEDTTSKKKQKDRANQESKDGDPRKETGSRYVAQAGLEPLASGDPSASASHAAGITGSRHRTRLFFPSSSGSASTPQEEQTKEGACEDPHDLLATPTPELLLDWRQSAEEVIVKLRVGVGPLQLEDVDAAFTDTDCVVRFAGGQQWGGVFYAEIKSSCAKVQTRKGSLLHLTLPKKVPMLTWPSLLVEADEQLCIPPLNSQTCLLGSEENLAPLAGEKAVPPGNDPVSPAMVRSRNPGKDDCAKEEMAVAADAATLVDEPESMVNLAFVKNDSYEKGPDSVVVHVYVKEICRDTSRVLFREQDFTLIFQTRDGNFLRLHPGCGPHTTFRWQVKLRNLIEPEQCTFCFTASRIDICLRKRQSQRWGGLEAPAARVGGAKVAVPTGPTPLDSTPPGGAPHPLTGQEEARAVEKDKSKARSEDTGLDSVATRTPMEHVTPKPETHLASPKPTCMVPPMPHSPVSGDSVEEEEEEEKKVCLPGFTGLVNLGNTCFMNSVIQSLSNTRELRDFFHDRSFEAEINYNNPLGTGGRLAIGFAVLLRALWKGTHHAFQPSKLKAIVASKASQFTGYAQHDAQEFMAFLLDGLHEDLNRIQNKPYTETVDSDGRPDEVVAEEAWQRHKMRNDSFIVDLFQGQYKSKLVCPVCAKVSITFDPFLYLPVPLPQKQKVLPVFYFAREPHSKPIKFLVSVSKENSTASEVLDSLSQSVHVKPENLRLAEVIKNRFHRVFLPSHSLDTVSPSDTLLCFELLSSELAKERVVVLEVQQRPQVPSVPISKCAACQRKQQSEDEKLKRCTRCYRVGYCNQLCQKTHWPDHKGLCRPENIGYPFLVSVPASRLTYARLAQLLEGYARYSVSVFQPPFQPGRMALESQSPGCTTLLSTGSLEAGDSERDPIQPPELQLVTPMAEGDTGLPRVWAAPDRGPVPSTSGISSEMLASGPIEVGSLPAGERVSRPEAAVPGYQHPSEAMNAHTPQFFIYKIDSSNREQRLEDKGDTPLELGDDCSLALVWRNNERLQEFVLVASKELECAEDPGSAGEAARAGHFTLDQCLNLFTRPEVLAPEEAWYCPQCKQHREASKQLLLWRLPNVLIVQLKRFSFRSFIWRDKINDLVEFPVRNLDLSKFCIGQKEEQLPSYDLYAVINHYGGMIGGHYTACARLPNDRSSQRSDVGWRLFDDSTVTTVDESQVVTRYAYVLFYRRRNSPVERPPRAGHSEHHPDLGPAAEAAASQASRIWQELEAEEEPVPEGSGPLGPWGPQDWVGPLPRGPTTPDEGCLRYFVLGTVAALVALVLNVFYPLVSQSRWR

Row | SMILES | IC50
1 | C[C@H](CC1CCCCC1)C(=O)N1CC[C@](O)(Cn2cc(C(=O)N3CCNCC3)c(-c3ccccc3)cc2=O)C2(CCCC2)C1 [Example 210, 1-(((R)-7-((R)-3-Cyclohexyl-2-methylpropanoyl)-10-hydroxy-7-azaspiro[4.5]decan-10-yl)methyl)-4-phenyl-5-(piperazine-1-carbonyl)pyridin-2(1H)-one] | 5000 to 50000 nM
2 | C[C@H](CC1CCCCC1)C(=O)N1CC[C@@](O)(Cn2cc(C(=O)N(C)C)c(-c3ccccc3)cc2=O)C2(CCCC2)C1 [Example 211, 1-(((S)-7-((R)-3-Cyclohexyl-2-methylpropanoyl)-10-hydroxy-7-azaspiro[4.5]decan-10-yl)methyl)-N,N-dimethyl-6-oxo-4-phenyl-1,6-dihydropyridine-3-carboxamide] | < 500 nM
3 | C[C@H](CC1CCCCC1)C(=O)N1CC[C@@](O)(Cn2cc(C(=O)N3CCNCC3)c(-c3ccccc3)cc2=O)C2(CCCC2)C1 [Example 212, 1-(((S)-7-((R)-3-Cyclohexyl-2-methylpropanoyl)-10-hydroxy-7-azaspiro[4.5]decan-10-yl)methyl)-4-phenyl-5-(piperazine-1-carbonyl)pyridin-2(1H)-one] | < 500 nM
4 | C[C@@H]1CN(C(=O)c2cn(C[C@]3(O)CCN(C(=O)[C@H](C)CC4CCCCC4)CC3(C)C)c(=O)cc2-c2ccccc2)CCN1 [Example 213, 1-(((S)-1-((R)-3-Cyclohexyl-2-methylpropanoyl)-4-hydroxy-3,3-dimethylpiperidin-4-yl)methyl)-5-((R)-3-methylpiperazine-1-carbonyl)-4-phenylpyridin-2(1H)-one] | < 500 nM
5 | C[C@H](CC1CCC1)C(=O)N1CC[C@@](O)(Cn2cc(C(=O)N(C)C)c(-c3ccccc3)cc2=O)C2(CCCC2)C1 [Example 214, 1-(((S)-7-((R)-3-Cyclobutyl-2-methylpropanoyl)-10-hydroxy-7-azaspiro[4.5]decan-10-yl)methyl)-N,N-dimethyl-6-oxo-4-phenyl-1,6-dihydropyridine-3-carboxamide] | < 500 nM
6 | C[C@H](CC1CCC1)C(=O)N1CC[C@@](O)(Cn2cc(C(=O)N3CCNCC3)c(-c3ccccc3)cc2=O)C2(CCCC2)C1 [Example 215, 1-(((S)-7-((R)-3-Cyclobutyl-2-methylpropanoyl)-10-hydroxy-7-azaspiro[4.5]decan-10-yl)methyl)-4-phenyl-5-(piperazine-1-carbonyl)pyridin-2(1H)-one] | < 500 nM
7 | C[C@H](CC(F)(F)F)C(=O)N1CC[C@@](O)(Cn2cc(C(=O)N(C)C)c(-c3ccccc3)cc2=O)C2(CCCC2)C1 [Example 216, 1-(((S)-10-Hydroxy-7-((R)-4,4,4-trifluoro-2-methylbutanoyl)-7-azaspiro[4.5]decan-10-yl)methyl)-N,N-dimethyl-6-oxo-4-phenyl-1,6-dihydropyridine-3-carboxamide] | < 500 nM
8 | C[C@H](CC(F)(F)F)C(=O)N1CC[C@@](O)(Cn2cc(C(=O)N3CCNCC3)c(-c3ccccc3)cc2=O)C2(CCCC2)C1 [Example 217, 1-(((S)-10-Hydroxy-7-((R)-4,4,4-trifluoro-2-methylbutanoyl)-7-azaspiro[4.5]decan-10-yl)methyl)-4-phenyl-5-(piperazine-1-carbonyl)pyridin-2(1H)-one] | < 500 nM
9 | CN(C)C(=O)c1cn(C[C@]2(O)CCN(C(=O)C(CC(F)(F)F)CC(F)(F)F)CC23CCCC3)c(=O)cc1-c1ccccc1 [Example 218, (S)-1-((10-Hydroxy-7-(4,4,4-trifluoro-2-(2,2,2-trifluoroethyl)butanoyl)-7-azaspiro[4.5]decan-10-yl)methyl)-N,N-dimethyl-6-oxo-4-phenyl-1,6-dihydropyridine-3-carboxamide] | 500 to 5000 nM
10 | O=C(c1cn(C[C@]2(O)CCN(C(=O)C(CC(F)(F)F)CC(F)(F)F)CC23CCCC3)c(=O)cc1-c1ccccc1)N1CCNCC1 [Example 219, (S)-1-((10-Hydroxy-7-(4,4,4-trifluoro-2-(2,2,2-trifluoroethyl)butanoyl)-7-azaspiro[4.5]decan-10-yl)methyl)-4-phenyl-5-(piperazine-1-carbonyl)pyridin-2(1H)-one] | 500 to 5000 nM
11 | C[C@H](CC1CCCCC1)C(=O)N1CC[C@@](O)(Cn2cc(C(=O)N(C)C)c(C3CC3)cc2=O)C(C)(C)C1 [Example 220, 1-(((S)-1-((R)-3-Cyclohexyl-2-methylpropanoyl)-4-hydroxy-3,3-dimethylpiperidin-4-yl)methyl)-4-cyclopropyl-N,N-dimethyl-6-oxo-1,6-dihydropyridine-3-carboxamide] | 500 to 5000 nM
12 | C[C@H](CC1CCCCC1)C(=O)N1CC[C@@](O)(Cn2cc(C(=O)N3CCNCC3)c(C3CC3)cc2=O)C(C)(C)C1 [Example 221, 1-(((S)-1-((R)-3-Cyclohexyl-2-methylpropanoyl)-4-hydroxy-3,3-dimethylpiperidin-4-yl)methyl)-4-cyclopropyl-5-(piperazine-1-carbonyl)pyridin-2(1H)-one] | 500 to 5000 nM
13 | C[C@H](CC1CCC1)C(=O)N1CC[C@@](O)(Cn2cc(C(=O)N(C)C)c(-c3ccccc3F)cc2=O)C2(CCCC2)C1 [Example 222, 1-(((S)-7-((R)-3-Cyclobutyl-2-methylpropanoyl)-10-hydroxy-7-azaspiro[4.5]decan-10-yl)methyl)-4-(2-fluorophenyl)-N,N-dimethyl-6-oxo-1,6-dihydropyridine-3-carboxamide] | < 500 nM
14 | C[C@H](CC(F)(F)F)C(=O)N1CC[C@@](O)(Cn2cc(C(=O)N(C)C)c(-c3ccccc3F)cc2=O)C2(CCCC2)C1 [Example 223, 4-(2-Fluorophenyl)-1-(((S)-10-hydroxy-7-((R)-4,4,4-trifluoro-2-methylbutanoyl)-7-azaspiro[4.5]decan-10-yl)methyl)-N,N-dimethyl-6-oxo-1,6-dihydropyridine-3-carboxamide] | 500 to 5000 nM
15 | C[C@H](CC1CCC1)C(=O)N1CC[C@@](O)(Cn2cc(C(=O)N3CCNCC3)c(-c3ccccc3F)cc2=O)C2(CCCC2)C1 [Example 224, 1-(((S)-7-((R)-3-Cyclobutyl-2-methylpropanoyl)-10-hydroxy-7-azaspiro[4.5]decan-10-yl)methyl)-4-(2-fluorophenyl)-5-(piperazine-1-carbonyl)pyridin-2(1H)-one] | < 500 nM
16 | C[C@H](CC(F)(F)F)C(=O)N1CC[C@@](O)(Cn2cc(C(=O)N3CCNCC3)c(-c3ccccc3F)cc2=O)C2(CCCC2)C1 [Example 225, 4-(2-Fluorophenyl)-1-(((S)-10-hydroxy-7-((R)-4,4,4-trifluoro-2-methylbutanoyl)-7-azaspiro[4.5]decan-10-yl)methyl)-5-(piperazine-1-carbonyl)pyridin-2(1H)-one] | 500 to 5000 nM
17 | C[C@H](CC1CCCCC1)C(=O)N1CC[C@@](O)(Cn2cc(C(=O)N(C)C)c(-c3ccccc3F)cc2=O)C2(CCCC2)C1 [Example 226, 1-(((S)-7-((R)-3-Cyclohexyl-2-methylpropanoyl)-10-hydroxy-7-azaspiro[4.5]decan-10-yl)methyl)-4-(2-fluorophenyl)-N,N-dimethyl-6-oxo-1,6-dihydropyridine-3-carboxamide] | < 500 nM
18 | C[C@H](CC1CCCCC1)C(=O)N1CC[C@@](O)(Cn2cc(C(=O)N3CCNCC3)c(-c3ccccc3F)cc2=O)C2(CCCC2)C1 [Example 227, 1-(((S)-7-((R)-3-Cyclohexyl-2-methylpropanoyl)-10-hydroxy-7-azaspiro[4.5]decan-10-yl)methyl)-4-(2-fluorophenyl)-5-(piperazine-1-carbonyl)pyridin-2(1H)-one] | < 500 nM
19 | C[C@H](CC1CCCCC1)C(=O)N1CC[C@@](O)(Cn2cc(C(=O)N3CCC(O)CC3)c(-c3ccccc3)cc2=O)C(C)(C)C1 [Example 228, 1-(((S)-1-((R)-3-Cyclohexyl-2-methylpropanoyl)-4-hydroxy-3,3-dimethylpiperidin-4-yl)methyl)-5-(4-hydroxypiperidine-1-carbonyl)-4-phenylpyridin-2(1H)-one] | < 500 nM
20 | CN(C)C(=O)c1cn(CC2(O)CCN(C(=O)C3CC(C(F)(F)F)C3)CC23CCCC3)c(=O)cc1-c1ccccc1 (stereo not shown) [Example 229, 1-((10-Hydroxy-7-(3-(trifluoromethyl)cyclobutane-1-carbonyl)-7-azaspiro[4.5]decan-10-yl)methyl)-N,N-dimethyl-6-oxo-4-phenyl-1,6-dihydropyridine-3-carboxamide] | 5000 to 50000 nM
21 | C[C@H](CC1CCC1)C(=O)N1CC[C@@](O)(Cn2cc(C(=O)N(C)C)c(C3CC3)cc2=O)C2(CCCC2)C1 [Example 230, 1-(((S)-7-((R)-3-Cyclobutyl-2-methylpropanoyl)-10-hydroxy-7-azaspiro[4.5]decan-10-yl)methyl)-4-cyclopropyl-N,N-dimethyl-6-oxo-1,6-dihydropyridine-3-carboxamide] | 500 to 5000 nM
22 | C[C@H](CC1CCC1)C(=O)N1CC[C@@](O)(Cn2cc(C(=O)N3CCNCC3)c(C3CC3)cc2=O)C2(CCCC2)C1 [Example 231, 1-(((S)-7-((R)-3-Cyclobutyl-2-methylpropanoyl)-10-hydroxy-7-azaspiro[4.5]decan-10-yl)methyl)-4-cyclopropyl-5-(piperazine-1-carbonyl)pyridin-2(1H)-one] | 500 to 5000 nM
23 | C[C@H](CC1CCCCC1)C(=O)N1CC[C@@](O)(Cn2cc(C(=O)N(C)C)c(C3CC3)cc2=O)C2(CCCC2)C1 [Example 232, 1-(((S)-7-((R)-3-Cyclohexyl-2-methylpropanoyl)-10-hydroxy-7-azaspiro[4.5]decan-10-yl)methyl)-4-cyclopropyl-N,N-dimethyl-6-oxo-1,6-dihydropyridine-3-carboxamide] | < 500 nM
24 | C[C@H](CC1CCCCC1)C(=O)N1CC[C@@](O)(Cn2cc(C(=O)N3CCNCC3)c(C3CC3)cc2=O)C2(CCCC2)C1 [Example 233, 1-(((S)-7-((R)-3-Cyclohexyl-2-methylpropanoyl)-10-hydroxy-7-azaspiro[4.5]decan-10-yl)methyl)-4-cyclopropyl-5-(piperazine-1-carbonyl)pyridin-2(1H)-one] | < 500 nM
25 | C[C@H](CC1CCCCC1)C(=O)N1CCC(O)(Cn2cc(C(=O)N(C)C)c(-c3ccccc3)cc2=O)C2(CCOCC2)C1 (stereo partly drawn) [Example 234, 1-((2-((R)-3-Cyclohexyl-2-methylpropanoyl)-5-hydroxy-9-oxa-2-azaspiro[5.5]undecan-5-yl)methyl)-N,N-dimethyl-6-oxo-4-phenyl-1,6-dihydropyridine-3-carboxamide] | 500 to 5000 nM
